Reference: paper PMC7402526, “An in vitro quantitative systems pharmacology approach for deconvolving mechanisms of drug-induced, multilineage cytopenias” (PLoS Computational Biology, 2020)
pEC50: −log10 of the molar value.

Assays:
monocytes (monocyte-lin) = assay: MLTA, Mono: concentration-response and QSP model fit; format: cell-based, human; settings: Homo sapiens, Monocyte, 144 h
How it was run: (§1)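 Freeze-thawed primary human bone marrow CD34+ cells were grown in SFEM II with a multi-lineage cytokine cocktail, drug added day 0, six days at 37°C. Lineage counts came from 17-parameter flow with TruCount beads, vehicle-normalized per donor, then fitted by an Emax-based QSP model.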

[1] = system: early erythroid cells (Eryth I); assay: MLTA, ErythI: concentration-response and QSP model fit; format: cell-based, human; settings: Homo sapiens, 144 h
How it was run: as §1

[2] = system: lymphocyte progenitors (LymP); assay: MLTA, LymP: concentration-response and QSP model fit; format: cell-based, human; settings: Homo sapiens, Lymphocyte, 144 h
How it was run: as §1

[3] = system: granulocyte progenitor (Gran-lin prog); assay: MLTA, GranP: concentration-response and QSP model fit; format: cell-based, human; settings: Homo sapiens, 144 h
How it was run: as §1

[4] = system: hematopoietic stem cells (HSCs); assay: Multi-lineage toxicity assay (MLTA), HSCs: concentration-response and QSP model fit; format: cell-based, human; design: EmaxAP,HSC / EmaxT,HSC / Emax_drug_HSC: unitless, 0–2; ≤1 anti-proliferative, >1 adds cell killing
How it was run: as §1

[5] = system: total viable cells (totalViableCells); assay: MLTA, total live cells concentration-response; format: cell-based; settings: Homo sapiens, 144 h, 6 days, normalized to vehicle control, read-out: total_live normalized cell count
Description: A custom optimized cytokine cocktail was developed using commercially available cytokines (Peprotech, New Jersey) to facilitate simultaneous multi-lineage differentiation and self-renewal of freeze-thawed primary human bone marrow-derived CD34+ cells in SFEM II media (cells and media from StemCell Technologies, Vancouver). Cultures were carried out in ultra-low attachment 96-well plates (Corning, New York) with test article added on day 0 and cultured at 37°C, 85% relative humidity, and 5% CO2 for six days before interrogating drug impact via 17-parameter flow cytometry.
The flow cytometry panel used to define hematopoietic subsets was composed of CD34-PECy7, CD90-PECY5, CD38-AF488, CD371-PE, CD45Ra-BV421, CD14-BV605, CD42b-AF647, CD10-PEDazzle594, CD235a-PerCPCy5.5 (BioLegend, California), CD15-BUV395, CD41a-APCH7, CD71-BV786 (BD Biosciences, California), and DAPI for dead cell exclusion (ThermoFisher, California). In short, Day 6 cells were harvested, FcR-blocked (FcR binding inhibitor, ThermoFisher), surface-stained, then analyzed in a buffer containing TruCount Control Beads using a BD LSR Fortessa SORP fitted with a high-throughput sampler (BD Biosciences, California). Data was analyzed in Diva 6.0.2 and exported to CSV where after all cell data was transformed to cell per mL then normalized on a per-donor basis to untreated control wells to determine drug impact.
Donor material was collected and cultured as described above. The number of replicate donor samples per drug ranged from 2–7 and varied per drug (S1 Table). Drug treatment was added at time 0 and cells were maintained in culture for 6 days. Concentrations tested for each drug compound are contained in S1 Table. Concentrations were selected to span a range that is clinically useful. Following treatment, cell populations were measured using flow cytometry. We extracted cell counts from flow cytometry data, normalized to bead counts, and corrected for well volume.
Each well was normalized to the average of six vehicle control wells. For drugs that were tested across multiple runs of the assay, vehicle-normalized donor data were pooled, and we used the average of these pooled data for further modeling. Normalized data used as model inputs are included in S1 Table.

[6] = system: monocyte progenitors (monocyte prog); assay: MLTA, MonoP: concentration-response and QSP model fit; format: cell-based, human; settings: Homo sapiens, Monocyte, 144 h
How it was run: as §1

Structure (SMILES): CN(C)C(=O)c1cc2cnc(Nc3ccc(N4CCNCC4)cn3)nc2n1C1CCCC1 [ribociclib]
- pEC50 (monocytes (monocyte-lin); QSP model fit of 6-day MLTA data): 6.74
- activity at 0.0002 µM (monocytes (monocyte-lin); dose 0.2 nM, 6 days, normalized to vehicle control, read-out: Mon normalized cell count): 84.3%
- activity at 0.001 µM (monocytes (monocyte-lin); dose 1 nM, 6 days, normalized to vehicle control, read-out: Mon normalized cell count): 96.7%
- activity at 0.005 µM (monocytes (monocyte-lin); dose 5 nM, 6 days, normalized to vehicle control, read-out: Mon normalized cell count): 92.1%
- activity at 0.025 µM (monocytes (monocyte-lin); dose 25 nM, 6 days, normalized to vehicle control, read-out: Mon normalized cell count): 78.1%
- activity at 0.1 µM (monocytes (monocyte-lin); dose 100 nM, 6 days, normalized to vehicle control, read-out: Mon normalized cell count): 55.4%
- activity at 0.5 µM (monocytes (monocyte-lin); dose 500 nM, 6 days, normalized to vehicle control, read-out: Mon normalized cell count): 31.4%
- activity at 2.5 µM (monocytes (monocyte-lin); dose 2500 nM, 6 days, normalized to vehicle control, read-out: Mon normalized cell count): 8.51%
- Emax (monocytes (monocyte-lin); parameter from QSP model fitting, read-out: Emax_drug_Mono): 19.5%
- activity at 0.0002 µM ([1]; dose 0.2 nM, 6 days, normalized to vehicle control, read-out: ErythI normalized cell count): 101%
- activity at 0.001 µM ([1]; dose 1 nM, 6 days, normalized to vehicle control, read-out: ErythI normalized cell count): 102%
- activity at 0.005 µM ([1]; dose 5 nM, 6 days, normalized to vehicle control, read-out: ErythI normalized cell count): 108%
- activity at 0.025 µM ([1]; dose 25 nM, 6 days, normalized to vehicle control, read-out: ErythI normalized cell count): 85.8%
- activity at 0.1 µM ([1]; dose 100 nM, 6 days, normalized to vehicle control, read-out: ErythI normalized cell count): 69%
- activity at 0.5 µM ([1]; dose 500 nM, 6 days, normalized to vehicle control, read-out: ErythI normalized cell count): 31.2%
- activity at 2.5 µM ([1]; dose 2500 nM, 6 days, normalized to vehicle control, read-out: ErythI normalized cell count): 9.42%
- Emax ([1]; parameter from QSP model fitting, read-out: Emax_drug_ErythroidI): 0.05%
- activity at 0.0002 µM ([2]; dose 0.2 nM, 6 days, normalized to vehicle control, read-out: LymP normalized cell count): 87.8%
- activity at 0.001 µM ([2]; dose 1 nM, 6 days, normalized to vehicle control, read-out: LymP normalized cell count): 95.2%
- activity at 0.005 µM ([2]; dose 5 nM, 6 days, normalized to vehicle control, read-out: LymP normalized cell count): 100%
- activity at 0.025 µM ([2]; dose 25 nM, 6 days, normalized to vehicle control, read-out: LymP normalized cell count): 61.7%
- activity at 0.1 µM ([2]; dose 100 nM, 6 days, normalized to vehicle control, read-out: LymP normalized cell count): 39.1%
- activity at 0.5 µM ([2]; dose 500 nM, 6 days, normalized to vehicle control, read-out: LymP normalized cell count): 17.4%
- activity at 2.5 µM ([2]; dose 2500 nM, 6 days, normalized to vehicle control, read-out: LymP normalized cell count): 4.31%
- Emax ([2]; parameter from QSP model fitting, read-out: Emax_drug_LymP): 0.032%
- pEC50 ([3]; QSP model fit of 6-day MLTA data, read-out: EC50GranP): 7.67
- activity at 0.0002 µM ([3]; dose 0.2 nM, 6 days, normalized to vehicle control, read-out: GranPs normalized cell count): 87.1%
- activity at 0.001 µM ([3]; dose 1 nM, 6 days, normalized to vehicle control, read-out: GranPs normalized cell count): 105%
- activity at 0.005 µM ([3]; dose 5 nM, 6 days, normalized to vehicle control, read-out: GranPs normalized cell count): 104%
- activity at 0.025 µM ([3]; dose 25 nM, 6 days, normalized to vehicle control, read-out: GranPs normalized cell count): 81.3%
- activity at 0.1 µM ([3]; dose 100 nM, 6 days, normalized to vehicle control, read-out: GranPs normalized cell count): 70.3%
- activity at 0.5 µM ([3]; dose 500 nM, 6 days, normalized to vehicle control, read-out: GranPs normalized cell count): 34.4%
- activity at 2.5 µM ([3]; dose 2500 nM, 6 days, normalized to vehicle control, read-out: GranPs normalized cell count): 10.8%
- Emax ([3]; parameter from QSP model fitting, read-out: Emax_drug_GranP): 6.43%
- pEC50 ([4]; Homo sapiens, Hematopoietic stem cell, 144 h, QSP model fit of 6-day MLTA data): 6.43
- activity at 0.0002 µM ([4]; Homo sapiens, Hematopoietic stem cell, 144 h, dose 0.2 nM, 6 days, normalized to vehicle control, read-out: HSCs normalized cell count): 90.3%
- activity at 0.001 µM ([4]; Homo sapiens, Hematopoietic stem cell, 144 h, dose 1 nM, 6 days, normalized to vehicle control, read-out: HSCs normalized cell count): 93.9%
- activity at 0.005 µM ([4]; Homo sapiens, Hematopoietic stem cell, 144 h, dose 5 nM, 6 days, normalized to vehicle control, read-out: HSCs normalized cell count): 107%
- activity at 0.025 µM ([4]; Homo sapiens, Hematopoietic stem cell, 144 h, dose 25 nM, 6 days, normalized to vehicle control, read-out: HSCs normalized cell count): 98.7%
- activity at 0.1 µM ([4]; Homo sapiens, Hematopoietic stem cell, 144 h, dose 100 nM, 6 days, normalized to vehicle control, read-out: HSCs normalized cell count): 89.4%
- activity at 0.5 µM ([4]; Homo sapiens, Hematopoietic stem cell, 144 h, dose 500 nM, 6 days, normalized to vehicle control, read-out: HSCs normalized cell count): 67.7%
- activity at 2.5 µM ([4]; Homo sapiens, Hematopoietic stem cell, 144 h, dose 2500 nM, 6 days, normalized to vehicle control, read-out: HSCs normalized cell count): 35.2%
- Emax ([4]; Homo sapiens, Hematopoietic stem cell, 144 h, parameter from QSP model fitting, read-out: Emax_drug_HSC): 48.9%
- EmaxAP,HSC ([4]; anti-proliferation component, min(1, EmaxT)): 0.489
- viability at 0.0002 µM ([5]; dose 0.2 nM): 90%
- viability at 0.001 µM ([5]; dose 1 nM): 97.8%
- viability at 0.005 µM ([5]; dose 5 nM): 106%
- viability at 0.025 µM ([5]; dose 25 nM): 79.4%
- viability at 0.1 µM ([5]; dose 100 nM): 66.6%
- viability at 0.5 µM ([5]; dose 500 nM): 42.1%
- viability at 2.5 µM ([5]; dose 2500 nM): 17.8%
- activity at 0.0002 µM ([6]; dose 0.2 nM, 6 days, normalized to vehicle control, read-out: MonoPs normalized cell count): 100%
- activity at 0.001 µM ([6]; dose 1 nM, 6 days, normalized to vehicle control, read-out: MonoPs normalized cell count): 108%
- activity at 0.005 µM ([6]; dose 5 nM, 6 days, normalized to vehicle control, read-out: MonoPs normalized cell count): 99.8%
- activity at 0.025 µM ([6]; dose 25 nM, 6 days, normalized to vehicle control, read-out: MonoPs normalized cell count): 80.2%
- activity at 0.1 µM ([6]; dose 100 nM, 6 days, normalized to vehicle control, read-out: MonoPs normalized cell count): 45.6%
- activity at 0.5 µM ([6]; dose 500 nM, 6 days, normalized to vehicle control, read-out: MonoPs normalized cell count): 16.7%
- activity at 2.5 µM ([6]; dose 2500 nM, 6 days, normalized to vehicle control, read-out: MonoPs normalized cell count): 6.97%
- Emax ([6]; parameter from QSP model fitting, read-out: Emax_drug_MonoP): 0.0352%
